From patent US10493060B2, “Spirocyclic compounds” (ZENO ROYALTIES & MILESTONES, LLC, priority 2015, dated 2019) come the findings set out here.

Where only a bound is given, the exact number is not on record here.

One assay addresses Activated ERK1 (Homo sapiens (Human), UniProt P27361). In words: Active ERK1 kinase assay (Mobility Shift Assay). It is filed as biochemical. As to the method: (§1) Activated ERK1 and ERK2 activity was determined in a Mobility Shift Assay (MSA) format as follows: Compound and kinase solution were prepared with assay buffer (20 mM HEPES, 0.01% Triton X-100, 2 mM DTT, pH7.5) and mixed and incubated in for 30 mins at rt. ERK1 & ERK2 were then activated by the addition of Fl-Substrate, ATP and metal solution and incubated for 1 h at rt. After 1 h, the reaction was terminated by the addition of […] of Termination Buffer (QuickScout Screening Assist MSA; Carna Biosciences) to the well. The reaction mixture was applied to LabChip™ system (PerkinElmer), and the product and substrate peptide peaks were separated, analyzed and quantitated. The kinase reaction is evaluated by the product ratio calculated from peak heights of product (P) and substrate (S) peptides (P/(P+S)).

Another assay concerns the target Activated ERK2 (Homo sapiens (Human), UniProt P28482). In words: Active ERK2 kinase assay (Mobility Shift Assay). It is filed as biochemical. As to the method:
as §1

In the next assay the test system is A375 (melanoma) cells. In words: Proliferation assay (CellTiter-Glo), A375. Type of assay: cell-based. The note with it: Homo sapiens, A-375, 72 h, 3 days. The method, then:
A375 (melanoma), Colo-205 (colon cancer), Miapaca (pancreatic), HPAFII (pancreatic), sNF02.0 (neurofibromatosis type 1), sNF96.2 (neurofibromatosis type 1) and 8505 (Thyroid) cells were grown and maintained in RPMI-1640 medium containing 100 U/mL penicillin-streptomycin and 10% fetal bovine serum. Cells were in growth medium in 96-well opaque-walled clear bottom plates and incubated the in the CO2 incubator overnight before treatment. Cells were treated with compounds diluted in DMSO and a 10 point 3-fold serial dilutions were done. Plates were placed in 37° C., 5% CO2 for to incubate for 3 days. Before they were developed by adding 100 μL of CellTiter-Glo reagent (Promega) to the assay plate, plates were shaken briefly for 2 mins and allowed to incubate at rt for 10 mins. The bottom of the plates was pasted with white back seal and luminescence was recorded with Flexstation3 with setting of luminescence, integration time 500 ms.
In general terms: Cellular ATP, detected with luciferase, serves as a proxy for viable cell number.

Activated ERK2, sequence (P28482 whole entry): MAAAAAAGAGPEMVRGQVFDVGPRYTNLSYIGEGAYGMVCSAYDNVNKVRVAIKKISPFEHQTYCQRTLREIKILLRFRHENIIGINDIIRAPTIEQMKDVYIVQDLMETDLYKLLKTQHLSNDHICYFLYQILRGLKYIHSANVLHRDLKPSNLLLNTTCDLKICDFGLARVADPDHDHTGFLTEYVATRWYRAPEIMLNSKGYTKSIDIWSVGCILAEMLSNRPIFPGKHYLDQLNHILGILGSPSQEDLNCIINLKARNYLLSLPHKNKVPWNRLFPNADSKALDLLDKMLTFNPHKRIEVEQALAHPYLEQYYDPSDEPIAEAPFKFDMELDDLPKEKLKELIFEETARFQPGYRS
Activated ERK1, sequence (P27361 whole entry): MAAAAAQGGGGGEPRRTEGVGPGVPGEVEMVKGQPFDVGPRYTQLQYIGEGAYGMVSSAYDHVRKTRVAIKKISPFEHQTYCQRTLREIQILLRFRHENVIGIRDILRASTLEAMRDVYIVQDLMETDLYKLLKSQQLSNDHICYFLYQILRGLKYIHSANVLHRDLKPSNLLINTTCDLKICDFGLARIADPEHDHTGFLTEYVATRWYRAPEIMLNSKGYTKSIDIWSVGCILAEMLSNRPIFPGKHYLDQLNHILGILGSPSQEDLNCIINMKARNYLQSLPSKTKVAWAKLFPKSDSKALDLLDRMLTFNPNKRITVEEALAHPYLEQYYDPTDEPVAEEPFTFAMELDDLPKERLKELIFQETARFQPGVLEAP

Consider `CC(C)Oc1ccc(-c2n[nH]c3ccc(N4CCC5(CCN(Cc6ccccc6)C5)C4=O)cc23)cn1` (stereo not drawn) [Example 21, 7-Benzyl-2-(3-(6-isopropoxypyridin-3-yl)-1H-indazol-5-yl)-2,7-diazaspiro[4.4]nonan-1-one], for which the IC50 at Activated ERK1 and at Activated ERK2 was at least 250 nM throughout.
Consider `CC(C)Oc1ccc(-c2n[nH]c3ccc(N4CCC5(CCN(CC(=O)N6CCN(c7ccc(-c8ncn(C)n8)cc7)CC6)C5)C4)cc23)cn1` (stereo not drawn) [Example 2, 2-(7-(3-(6-Isopropoxypyridin-3-yl)-1H-indazol-5-yl)-2,7-diazaspiro[4.4]nonan-2-yl)-1-(4-(4-(1-methyl-1H-1,2,4-triazol-3-yl)phenyl)piperazin-1-yl)ethan-1-one], for which the 50% inhibitory concentration (IC50) at Activated ERK1 and on Activated ERK2 was at least 250 nM throughout.
With `CC(C)Oc1ccc(-c2n[nH]c3ccc(N4CC[C@@]5(CCN(CC(=O)N6CC=C(c7ccc(-c8ncn(C)n8)cc7)CC6)C5)C4=O)cc23)cn1` [Example 11, (R)-2-(3-(6-Isopropoxypyridin-3-yl)-1H-indazol-5-yl)-7-(2-(4-(4-(1-methyl-1H-1,2,4-triazol-3-yl)phenyl)-3,6-dihydropyridin-1 (2H)-yl)-2-oxoethyl)-2,7-diazaspiro[4.4]nonan-1-one], the IC50 on Activated ERK1 and on Activated ERK2 was at least 250 nM each time.
`Cc1cc(-c2n[nH]c3ccc(N4CC[C@@]5(CCN(CC(=O)N6CC=C(c7ccc(-c8ncn(C)n8)cc7)CC6)C5)C4=O)cc23)ccn1` [Example 9, (R)-7-(2-(4-(4-(1-Methyl-1H-1,2,4-triazol-3-yl)phenyl)-3,6-dihydropyridin-1(2H)-yl)-2-oxoethyl)-2-(3-(2-methylpyridin-4-yl)-1H-indazol-5-yl)-2,7-diazaspiro[4.4]nonan-1-one]: the half-maximal inhibitory concentration (IC50) (commonly the concentration needed to halve the response being measured) was 50 to 250 nM on Activated ERK1 and at most 50 nM at Activated ERK2.
Take `Cc1cc(-c2n[nH]c3ccc(N4CCC5(CCN(CC(=O)N6CC=C(c7ccc(-c8ncn(C)n8)cc7)CC6)C5)C4=O)cc23)ccn1` (stereo not drawn) [Example 6, 7-(2-(4-(4-(1-Methyl-1H-1,2,4-triazol-3-yl)phenyl)-3,6-dihydropyridin-1(2H)-yl)-2-oxoethyl)-2-(3-(2-methylpyridin-4-yl)-1H-indazol-5-yl)-2,7-diazaspiro[4.4]nonan-1-one]: the IC50 at Activated ERK1 and on Activated ERK2 was at most 50 nM in each case.
Regarding `CC(C)Oc1ccc(-c2n[nH]c3ccc(N4CCC5(CCN(CC(=O)N6CC=C(c7ccc(-c8ncn(C)n8)cc7)CC6)C5)C4)cc23)cn1` (stereo not drawn) [Example 4, 2-(7-(3-(6-Isopropoxypyridin-3-yl)-1H-indazol-5-yl)-2,7-diazaspiro[4.4]nonan-2-yl)-1-(4-(4-(1-methyl-1H-1,2,4-triazol-3-yl)phenyl)-3,6-dihydropyridin-1(2H)-yl)ethan-1-one], the IC50 on Activated ERK1 and on Activated ERK2 was at least 250 nM in each case.
For `CC(C)Oc1ccc(-c2n[nH]c3ccc(N4CCC5(CN(CC(=O)N6CC=C(c7ccc(-c8ncn(C)n8)cc7)CC6)C5)C4=O)cc23)cn1` [Example 13, 6-(3-(6-Isopropoxypyridin-3-yl)-1H-indazol-5-yl)-2-(2-(4-(4-(1-methyl-1H-1,2,4-triazol-3-yl)phenyl)-3,6-dihydropyridin-1(2H)-yl)-2-oxoethyl)-2,6-diazaspiro[3.4]octan-5-one], the IC50 at Activated ERK1 and at Activated ERK2 was 50 to 250 nM each time.
Take `Cc1nnc(-c2ccc(C3=CCN(C(=O)CN4CC[C@]5(CCN(c6ccc7[nH]nc(-c8ccnc(C(F)(F)F)c8)c7c6)C5=O)C4)CC3)cc2)o1` [Example 42, (S)-7-(2-(4-(4-(5-Methyl-1,3,4-oxadiazol-2-yl)phenyl)-3,6-dihydropyridin-1 (2H)-yl)-2-oxoethyl)-2-(3-(2-(trifluoromethyl)pyridin-4-yl)-1H-indazol-5-yl)-2,7-diazaspiro[4.4]nonan-1-one]: the IC50 was at most 500 nM with A375 (melanoma) cells and at most 50 nM at Activated ERK2.
`CC(C)Oc1ccc(-c2n[nH]c3ccc(N4CC[C@]5(CCN(CC(=O)N6CC=C(c7ccc(-c8cn(C)cn8)cc7)CC6)C5)C4=O)cc23)cn1` [Example 26, (S)-2-(3-(6-Isopropoxypyridin-3-yl)-1H-indazol-5-yl)-7-(2-(4-(4-(1-methyl-1H-imidazol-4-yl)phenyl)-3,6-dihydropyridin-1(2H)-yl)-2-oxoethyl)-2,7-diazaspiro[4.4]nonan-1-one]: the results for the IC50 with A375 (melanoma) cells and at Activated ERK2 were at most 500 nM and at most 50 nM, respectively.
As for `Cn1cc(-c2ccc(C3=CCN(C(=O)CN4CC[C@]5(CCN(c6ccc7[nH]nc(-c8ccnc(C(F)(F)F)c8)c7c6)C5=O)C4)CC3)cc2)nn1` [Example 41, (S)-7-(2-(4-(4-(1-methyl-1H-1,2,3-triazol-4-yl)phenyl)-3,6-dihydropyridin-1 (2H)-yl)-2-oxoethyl)-2-(3-(2-(trifluoromethyl)pyridin-4-yl)-1H-indazol-5-yl)-2,7-diazaspiro[4.4]nonan-1-one], the figures for the half-maximal inhibitory concentration (IC50) with A375 (melanoma) cells and on Activated ERK2 were at most 500 nM and at most 50 nM, respectively.
For the compound `CCNc1nnc(-c2ccc(C3=CCN(C(=O)CN4CC[C@]5(CCN(c6ccc7[nH]nc(-c8ccc(OC(C)C)nc8)c7c6)C5=O)C4)CC3)cc2)s1` [Example 19, (S)-7-(2-(4-(4-(5-(Ethylamino)-1,3,4-thiadiazol-2-yl)phenyl)-3,6-dihydropyridin-1(2H)-yl)-2-oxoethyl)-2-(3-(6-isopropoxypyridin-3-yl)-1H-indazol-5-yl)-2,7-diazaspiro[4.4]nonan-1-one], the IC50 at Activated ERK1 and on Activated ERK2 was at most 50 nM throughout.
Take `CC(C)Oc1ccc(-c2n[nH]c3ccc(N4CC[C@]5(CCN(CC(=O)N6CCC(c7ccc(-c8ncn(C)n8)cc7)CC6)C5)C4=O)cc23)cn1` [Example 16, (S)-2-(3-(6-Isopropoxypyridin-3-yl)-1H-indazol-5-yl)-7-(2-(4-(4-(1-methyl-1H-1,2,4-triazol-3-yl)phenyl)piperidin-1-yl)-2-oxoethyl)-2,7-diazaspiro[4.4]nonan-1-one]: the 50% inhibitory concentration (IC50) at Activated ERK1 and at Activated ERK2 was at most 50 nM in each case.
As to `Cn1cnc(-c2ccc(C3=CCN(C(=O)CN4CC[C@]5(CCN(c6ccc7[nH]nc(N8CCOCC8)c7c6)C5=O)C4)CC3)cc2)n1` [Example 33, (S)-7-(2-(4-(4-(1-Methyl-1H-1,2,4-triazol-3-yl)phenyl)-3,6-dihydropyridin-1 (2H)-yl)-2-oxoethyl)-2-(3-morpholino-1H-indazol-5-yl)-2,7-diazaspiro[4.4]nonan-1-one], the concentration for half-maximal inhibition (IC50) in the assay on A375 (melanoma) cells was at most 500 nM; at Activated ERK2, at most 50 nM.
As to `CC(C)Oc1ccc(-c2n[nH]c3ccc(N4CC[C@]5(CCN(CC(=O)N6CC=C(c7ccc(-n8ccnn8)cc7)CC6)C5)C4=O)cc23)cn1` [Example 14, (S)-7-(2-(4-(4-(1H-1,2,3-Triazol-1-yl)phenyl)-3,6-dihydropyridin-1(2H)-yl)-2-oxoethyl)-2-(3-(6-isopropoxypyridin-3-yl)-1H-indazol-5-yl)-2,7-diazaspiro[4.4]nonan-1-one], the IC50 at Activated ERK1 and at Activated ERK2 was at most 50 nM in each case.
`Cn1cnc(-c2ccc(C3=CCN(C(=O)CN4CC[C@]5(CCN(c6ccc7[nH]nc(-c8ccnc(C(F)F)c8)c7c6)C5=O)C4)CC3)cc2)n1` [Example 40, (S)-2-(3-(2-(Difluoromethyl)pyridin-4-yl)-1H-indazol-5-yl)-7-(2-(4-(4-(1-methyl-1H-1,2,4-triazol-3-yl)phenyl)-3,6-dihydropyridin-1(2H)-yl)-2-oxoethyl)-2,7-diazaspiro[4.4]nonan-1-one]: the values for the IC50 with A375 (melanoma) cells and at Activated ERK2 were at most 500 nM and at most 50 nM, respectively.
As to `Cn1cnc(-c2ccc(C3=CCN(C(=O)CN4CC[C@]5(CCN(c6ccc7[nH]nc(-c8ccnc(C(C)(F)F)c8)c7c6)C5=O)C4)CC3)cc2)n1` [Example 39, (S)-2-(3-(2-(1,1-difluoroethyl)pyridin-4-yl)-1H-indazol-5-yl)-7-(2-(4-(4-(1-methyl-1H-1,2,4-triazol-3-yl)phenyl)-3,6-dihydropyridin-1(2H)-yl)-2-oxoethyl)-2,7-diazaspiro[4.4]nonan-1-one], the IC50 with A375 (melanoma) cells was at most 500 nM; on Activated ERK2, at most 50 nM.
Regarding `CC(C)Oc1ccc(-c2n[nH]c3ccc(N4CCCC5(CCN(CC(=O)N6CC=C(c7ccc(-c8ncn(C)n8)cc7)CC6)C5)C4=O)cc23)cn1` (stereo not drawn) [Example 5, 7-(3-(6-Isopropoxypyridin-3-yl)-1H-indazol-5-yl)-2-(2-(4-(4-(1-methyl-1H-1,2,4-triazol-3-yl)phenyl)-3,6-dihydropyridin-1 (2H)-yl)-2-oxoethyl)-2,7-diazaspiro[4.5]decan-6-one], the figures for the concentration for half-maximal inhibition (IC50) at Activated ERK1 and at Activated ERK2 were at least 250 nM and 50 to 250 nM, respectively.
In the case of `CC(C)Oc1ccc(-c2n[nH]c3ccc(N4CCC5(CCN(CC(=O)N6CC=C(c7ccc(-c8ncn(C)n8)cc7)CC6)C5)C4=O)cc23)cn1` (stereo not drawn) [Example 1, 2-(3-(6-Isopropoxypyridin-3-yl)-1H-indazol-5-yl)-7-(2-(4-(4-(1-methyl-1H-1,2,4-triazol-3-yl)phenyl)-3,6-dihydropyridin-1(2H)-yl)-2-oxoethyl)-2,7-diazaspiro[4.4]nonan-1-one], the IC50 on Activated ERK1 and on Activated ERK2 was at most 50 nM in each case.
